Reference: patent US20040175383A1, “Methods and compositions for treatment of otitis media” (priority 2002, published 2004)
Where two headings read alike, the source gives them in different places.

How the values were obtained:
[1] = tested on: acute otitis media induced by Streptococcus pneumoniae; format: in vivo, chinchilla
Experimental: All study animals were initially anesthetized to allow baseline hearing testing (electrocochleography and tympanometry) and to allow bacteria (Streptococcus pneumoniae) to be injected across the thin bone covering the middle ear (dorsal bulla) to induce a middle ear infection bilaterally. After allowing the inflammation to become established for 3 to 4 days, the ears were graded for severity of middle ear inflammation. Half the ears were injected with alpha 1-antitrypsin (100 mg/ml)half with saline. All animals received systemic antibacterial treatment (enrofloxacin). […] Assessment was given quantiatively according to the following table: [table] Hearing assessment were also performed throughout the study and following euthanasia at the end of study, temporal bone specimens were obtained from all ears for histopathological analysis.

[2] = in vivo
Experimental: (§1) Prospective, randomized, controlled trial in the chinchilla model.
(§2) After completing baseline auditory testing and bilateral transpalatal obstruction of the Eustachian tube (ETO), chinchillas received weekly transbullar injections of protease inhibitor (alpha 1-antitrypsin, ilomastat, or both), vehicle, or saline. After one month, hearing was tested and the animals were sacrificed. Temporal bone histopathology was performed.
(§3) A total of 96 healthy adult chinchillas of either sex, 400-600 grams, were used in this experiment. Prior to entry into the study, all animals were otomicroscopically free of middle ear pathology. All animals underwent auditory testing and bilateral transpalatal obstruction of the Eustachian tube, followed by immediate transbullar injection (across the thin bone covering the dorsal aspect of the middle ear) of saline or vehicle solution, with or without protease inhibitor. Thus, there were five treatment groups: saline, vehicle solution, vehicle with alpha 1-antitrypsin (100 μg /ml), vehicle with ilomastat (100 μg /ml), and vehicle with alpha 1-antitrypsin and ilomastat (100 μg /ml of each). Weekly thereafter, animals received a light anesthetic for ear examinations, transbullar sampling of the middle ear fluid, and transbullar reinjection of saline or the vehicle +/− protease inhibitor. One month after ETO, animals were anesthetized, middle ear fluid was removed, and auditory testing was performed immediately prior to sacrifice. Temporal bones were harvested for histopathological analysis.
(§4) Ilomastat was prepared by substituting alpha 1-antitrypsin. Vehicle was similarly prepared, without the addition of any protease inhibitor. Injectable, 0.9% normal saline was used as the non-treatment control.
(§5) Briefly, the palate was split and the Eustachian tube orifices were bluntly palpated. The orifices were denuded of mucosa, the deeper tissues cauterized, and the lumen packed with Gelfoam sponge. The palate was reapproximated with a single layer of polyglycolic acid sutures.
(§6) Auditory Evaluation: Assessment of auditory thresholds was performed using electrocochleography. […] Electrocochleographic thresholds were measured for clicks and tone pips at 4, 8, 12, and 16 kHz. Stimulus generation was executed by an auditory electrophysiology workstation with SigGen™ and AeP™ software (Tucker-Davis Technologies, Gainesville, Fla.) and Etymotic transducers (ER-2, Elk Grove Village, Ill.). Stimuli were introduced with an insert earphone tube placed into the external auditory canal, just medial to the crus of the helix. Auditory thresholds were evaluated by decreasing stimulus intensity in 5 dB increments, from a maximum of 100 dB, until the waveform disappeared. At that point, the stimulus intensity was increased in 5 dB increments until the waveform re-emerged. […]

[3] = tested on: inner ear / hearing (electrocochleographic thresholds); conditions: in vivo
Experimental: as §1, §2, §3, §4, §5, §6

[4] = tested on: MMP activity (tMMP, predominantly MMPs 2 and 9) in MEE samples; experiment: MMP activity in human middle ear effusion samples in the presence of ilomastat (colorimetric synthetic substrate assay); format: biochemical; parameters: Inhibition of MMP activity, overall / Ilomastat-MMP Inhibition % (mean inhibition): concentration or dose not given beside the values; conditions: for Ilomastat-MMP Inhibition % (mean inhibition) / MMP >30% Inhibition (percent of samples that had enzyme activity inhibited by >30%): MEE samples
Source text: Human Subjects & Sample Collection: Middle ear effusion (MEE) samples were collected from all consenting patients that presented to the investigators for the treatment of OM. Most samples were taken from subjects at the time of myringotomy, with or without tube placement, for recurrent acute otitis media (RAOM) and chronic otitis media with effusion (COME). Less commonly, samples were collected upon presentation with acute post-tympanostomy otorrhea (APTO) or with chronic suppurative otitis media (CSOM). Samples were aspirated with a Juhn Tymp-Tap (Medtronic-Xomed, Jacksonville, Fla.). The aspiration device was rinsed—and sample diluted—with 500 μl of normal saline and immediately placed on ice for transport to the investigators' laboratories. Samples were centrifuged to remove cellular material then divided into aliquots and frozen until batch processing could be performed.
Protease and Inhibition Analysis: Active (aMMP) and proenzyme (pMMP) forms of MMPs 2 and 9 were measured using a gelatin zymography technique. MMP activity (tMMP, but predominantly MMPs 2 and 9) present in MEE samples was measured using a […] assay that uses a synthetic substrate that reduces Ellmans reagent upon cleavage. Because two different activity assays were used that detected different types and levels of MMPs, a direct comparison between aMMP, pMMP and tMMP was not considered valid. Human neutrophil elastase (HNE) activity was measured using a standard technique. Results were expressed as change in absorbance over time (mAU/min). […] Samples with excessive activity levels were tested by serial dilution. MMP activity was measured in the presence of physiologically deliverable levels of ilomastat.
Statistical Analysis: An analysis of variance was performed on the enzyme activities and mean inhibition of activities to determine if there were differences activities across diagnoses, middle ear findings. If there were statistically significant differences, […] tests were performed. […] The distribution of patients with an activities greater than 3 mAU/min and inhibition greater than 30% was tested using Fisher's exact test to determine if there was a difference in these distributions across diagnoses.

[5] = tested on: inner ear / hearing (electrocochleographic thresholds); experiment: Ototoxicity study in chinchilla with Eustachian tube obstruction, weekly transbullar injection of protease inhibitors; conditions: applied to the middle ear
Experimental: as §1, §2, §3, §4, §5, §6

**Q.** What does the source list for “rAAT: Recombinant alpha 1-antitrypsin, a serine protease inhibitor, expressed in recombinant yeast cells and purified by column chromatography”?
**A.** TM Score ([1]; Day 1, otomicroscopic scale 0 (normal) to 6 (perforated)): 0; TM Score ([1]; Day 4, scale 0-6): 2.167; TM Score ([1]; Day 6, scale 0-6): 4.17; TM Score ([1]; Day 8, scale 0-6): 3.5; TM Score ([1]; Day 10, scale 0-6): 2.8; TM Score ([1]; Day 14, scale 0-6): 1.25; TM Score ([1]; Day 16, scale 0-6): 0.75; TM Score ([1]; Day 18, scale 0-6): 0.5; TM Score ([1]; Day 20, scale 0-6): 0.5; TM Score ([1]; Day 22, scale 0-6): 0; TM Score ([1]; Day 24, scale 0-6): 0; TM Score ([1]; Day 26, scale 0-6): 0; TM Score ([1]; Day 28, scale 0-6): 0; Middle ear inflammation by otomicroscopy, compared with saline ([1]; otic administration, with systemic enrofloxacin): mitigated the inflammatory process more rapidly than saline; Time to resolution of clinical manifestations of otitis media ([1]; single application of rAAT, control 26 days): 22 days; Persistence of middle ear effusion at the final treatment day (percent of ears) [2]: 100%; Ototoxicity in the chinchilla model [3]: lack ototoxicity

**Q.** Which “Ilomastat-MMP Inhibition % (mean inhibition)” value (shortened to “Ilomastat-MMP Inhibition %”) ([4]; diagnosis APTO) does the source give for `CNC(=O)[C@H](Cc1c[nH]c2ccccc12)NC(=O)[C@@H](CC(=O)NO)CC(C)C` [Ilomastat, N-[2(R)-2(hydroxyamidocarbonylmethyl)-4-methylpentanoyl]-L-tryptophan methyl amide] here?
**A.** 41.2%

**Q.** And the “MMP >30% Inhibition (percent of samples that had enzyme activity inhibited by >30%)” value ([4]; diagnosis APTO)?
**A.** 57%

**Q.** What about the “Ilomastat-MMP Inhibition %” value ([4]; diagnosis COME) of the same compound?
**A.** 70.0%

**Q.** And the “MMP >30% Inhibition (percent of samples that had enzyme activity inhibited by >30%)” value ([4]; diagnosis COME)?
**A.** 86%

**Q.** What about the “Ilomastat-MMP Inhibition %” value ([4]; diagnosis CSOM) of the same compound?
**A.** 51.5%

**Q.** And the “MMP >30% Inhibition (percent of samples that had enzyme activity inhibited by >30%)” value ([4]; diagnosis CSOM)?
**A.** 40%

**Q.** What about the “Ilomastat-MMP Inhibition %” value ([4]; diagnosis Cholesteatoma) of the same compound?
**A.** 31.5%

**Q.** What about the “MMP >30% Inhibition (percent of samples that had enzyme activity inhibited by >30%)” value ([4]; diagnosis Cholesteatoma) of the same compound?
**A.** 71%

**Q.** And the “Ilomastat-MMP Inhibition %” value ([4]; diagnosis RAOM)?
**A.** 85.5%

**Q.** What about the “MMP >30% Inhibition (percent of samples that had enzyme activity inhibited by >30%)” value ([4]; diagnosis RAOM) of the same compound?
**A.** 100%

**Q.** What about the “Ilomastat-MMP Inhibition %” value ([4]; diagnosis RAOM/COME) of the same compound?
**A.** 81.4%

**Q.** What about the “MMP >30% Inhibition (percent of samples that had enzyme activity inhibited by >30%)” value ([4]; diagnosis RAOM/COME) of the same compound?
**A.** 100%

**Q.** And the “Percent of MEEs with significant inhibition (>30% reduction) of MMP activity” value ([4]; MEEs with significant MMP activity (>3 mAU/min))?
**A.** 80%

**Q.** What about the “Inhibition of MMP activity, overall” value ([4]; all MEE samples) of the same compound?
**A.** 64%

**Q.** What about the “Persistence of middle ear effusion at the final treatment day (percent of ears)” value [2] of the same compound?
**A.** 83%

**Q.** What about the “Ototoxicity in the chinchilla model” value [5] of the same compound?
**A.** lack ototoxicity
